Data: patent publication US9668473B2, “Process for obtaining biopolymeric nanoparticles containing Azadirachta indica A. Juss. (neem.) oil and extracts, biopolymeric nanoparticles, and powder microparticles” (priority 2013, dated 2017)
Like-named read-outs stand apart in the source and are kept apart here.

Tests used:
[1] = cited from earlier work
[2] = format: physicochemical
Procedure: Reproducibility, Resistance, Recovery, and Storage Stability
Azadirachtin solutions stores at 4° C. were considered stable.

[3] = Azadirachtin solubility and dispersion capability in aqueous phase; format: physicochemical
Description: This value represents an azadirachtin dispersion capability 13 times greater than its solubility. That is, it is possible to prepare a new formulation for applying Neem extracts and oil with high azadirachtin contents, whereas the surfactant content is kept low (Tween®80=0.5% m/v). It should be clear for those skilled in the art that this value represents a non-limiting example; greater dispersion capabilities are fairly possible according to the extract content used.

C/C=C(\C)C(=O)O[C@H]1C[C@@H](OC(C)=O)[C@@]2(C(=O)OC)CO[C@H]3[C@@H](O)[C@@](C)([C@]45O[C@@]4(C)[C@H]4C[C@@H]5O[C@@H]5OC=C[C@@]54O)[C@H]4[C@]1(CO[C@]4(O)C(=O)OC)[C@@H]32 [Azadirachtin, azadirachtin]
azadirachtin activity ([1]; after 4 hours of sunlight exposure): ~60%
azadirachtin activity ([1]; after 15 hours of sunlight exposure): ~50%
storage stability [2]: stable
Azadirachtin solubility [3]: 26.0 mg 100 mL^−1
